The source of these data is ChEMBL document CHEMBL5247656, “Discovery of a Potent, Cooperative, and Selective SOS1 PROTAC ZZ151 with In Vivo Antitumor Efficacy in KRAS-Mutant Cancers” (J Med Chem, 2023).

Test [1] addresses T1, von Hippel-Lindau disease tumor suppressor/Son of sevenless homolog 1 (Homo sapiens) (UniProt Q07889+P40337). The test is described as follows: PROTAC activity at VHL/SOS1 in human NCI-H358 cells assessed as induction of SOS1 protein degradation at 1.0 uM incubated for 24 hrs by Immunoblot analysis relative to control. The format is cell-based.
The target in test [2] is T1, von Hippel-Lindau disease tumor suppressor/Son of sevenless homolog 1 (Homo sapiens). The test is described as follows: PROTAC activity at VHL/SOS1 in human NCI-H358 cells assessed as induction of SOS1 protein degradation at 0.1 uM incubated for 24 hrs by Immunoblot analysis relative to control. Type of test: cell-based. A general note: Immunoblotting shows a protein as a band on a membrane.

Test [3] addresses T2, Son of sevenless homolog 1 (Homo sapiens, UniProt Q07889).
T2 sequence (Q07889 whole entry): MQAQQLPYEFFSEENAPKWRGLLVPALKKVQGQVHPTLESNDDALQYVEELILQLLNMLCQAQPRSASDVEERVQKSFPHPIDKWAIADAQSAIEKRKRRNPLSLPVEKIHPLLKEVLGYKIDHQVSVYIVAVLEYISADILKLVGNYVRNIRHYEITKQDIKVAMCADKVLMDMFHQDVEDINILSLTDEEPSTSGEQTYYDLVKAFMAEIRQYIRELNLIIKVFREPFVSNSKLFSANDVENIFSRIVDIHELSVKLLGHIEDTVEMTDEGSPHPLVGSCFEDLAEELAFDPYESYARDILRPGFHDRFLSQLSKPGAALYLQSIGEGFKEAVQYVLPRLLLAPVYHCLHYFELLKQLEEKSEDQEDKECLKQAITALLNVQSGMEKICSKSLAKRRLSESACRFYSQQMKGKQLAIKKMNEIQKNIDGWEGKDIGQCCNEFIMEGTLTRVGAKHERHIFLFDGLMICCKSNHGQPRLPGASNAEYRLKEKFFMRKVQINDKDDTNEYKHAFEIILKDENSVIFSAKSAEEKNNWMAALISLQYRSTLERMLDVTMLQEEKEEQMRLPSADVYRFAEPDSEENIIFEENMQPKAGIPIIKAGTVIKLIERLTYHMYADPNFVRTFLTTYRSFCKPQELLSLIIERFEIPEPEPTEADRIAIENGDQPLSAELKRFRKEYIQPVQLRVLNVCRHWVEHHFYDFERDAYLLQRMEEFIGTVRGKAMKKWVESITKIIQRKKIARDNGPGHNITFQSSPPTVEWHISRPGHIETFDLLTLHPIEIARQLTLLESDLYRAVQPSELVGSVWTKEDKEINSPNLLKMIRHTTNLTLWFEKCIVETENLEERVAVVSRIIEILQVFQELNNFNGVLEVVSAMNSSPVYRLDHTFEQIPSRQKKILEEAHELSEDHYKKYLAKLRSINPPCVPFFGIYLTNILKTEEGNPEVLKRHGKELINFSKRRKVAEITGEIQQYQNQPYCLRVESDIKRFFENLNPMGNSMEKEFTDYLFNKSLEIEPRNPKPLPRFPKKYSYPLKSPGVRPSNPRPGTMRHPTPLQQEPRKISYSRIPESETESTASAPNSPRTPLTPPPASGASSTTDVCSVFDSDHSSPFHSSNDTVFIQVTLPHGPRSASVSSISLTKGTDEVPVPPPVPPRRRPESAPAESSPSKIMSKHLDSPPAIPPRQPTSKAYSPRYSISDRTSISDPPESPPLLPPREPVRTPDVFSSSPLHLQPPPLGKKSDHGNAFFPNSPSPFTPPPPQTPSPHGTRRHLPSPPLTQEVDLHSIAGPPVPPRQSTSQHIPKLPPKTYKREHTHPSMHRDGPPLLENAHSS
The test is described as follows: Binding affinity to GST-tagged human SOS1 (564 to 1049 residues) expressed in Escherichia coli BL21 (DE3) cells assessed as ternary complex formation by measuring dissociation constant incubated for 15 mins in the presence of 6His tagged human VCB by fluorescence polarization-based displacement assay. (In fluorescence polarisation assays a small probe gives low polarisation when free and higher when bound to something large.)

Test [4] has as its target T3, Son of sevenless homolog 1 (Homo sapiens) (UniProt Q07889).
T3 sequence (whole entry): T2 sequence (Q07889 whole entry)
The test is described as follows: Co-operativity factor, ratio of Kd for binding affinity to GST-tagged human SOS1 (564 to 1049 reisudes) expressed in Escherichia coli BL21 (DE3) cells assessed as binary complex formation to Kd for binding affinity to GST-tagged human SOS1 (564 to 1049 residues) expressed in Escherichia coli BL21 (DE3) cells assessed as ternary complex formation in the presence of 6His tagged human VCB.

In test [5] the target is von Hippel-Lindau disease tumor suppressor/Son of sevenless homolog 1/Elongin-B/Elongin-C (Homo sapiens) (UniProt Q07889+P40337+Q15370+Q15369). The experiment in a line: Binding affinity to GST tagged human SOS1(564 to 1049 residues)-6his tagged human VHL (54 to 213 residues)-human ElonginC (17 to 112 residues)-human ElonginB (1 to 104 residues) expressed in Escherichia coli BL21 (DE3) cells assessed as ternary complex formation by measuring maximal HTRF signals incubated for 15 mins by HTRF analysis. In general terms: TR-FRET usually uses a lanthanide donor and a delayed reading to cut background.

The target of test [6] is T1, von Hippel-Lindau disease tumor suppressor/Son of sevenless homolog 1 (Homo sapiens). The experiment in a line: PROTAC activity at VHL/SOS1 in human NCI-H358 cells assessed as induction of SOS1 protein degradation by measuring maximal efficacy at 2 to 2000 nM incubated for 24 hrs by Immunoblot analysis relative to control. The format is cell-based. To be noted: dose 2-2000 nM.

For test [7], the target named is T2, Son of sevenless homolog 1. The experiment in a line: Binding affinity to GST-tagged human SOS1 (564 to 1049 residues) expressed in Escherichia coli BL21 (DE3) cells assessed as binary complex formation by measuring dissociation constant incubated for 15 mins by fluorescence polarization-based displacement assay.
Test [8] concerns the target von Hippel-Lindau disease tumor suppressor/Son of sevenless homolog 1 (Homo sapiens, UniProt P40337+Q07889). The test is described as follows: PROTAC activity at VHL/SOS1 in human NCI-H358 cells assessed as induction of SOS1 protein degradation incubated for 24 hrs by Immunoblot analysis. The format is cell-based.

Usually Kd stands for the free concentration of one partner at which half of the binding sites on the other are occupied at equilibrium, for simple one-to-one binding. By Emax is commonly meant the size of the effect at its maximum, as opposed to the concentration needed. What is called EC50 is the concentration needed to bring the measured effect to its halfway point.

SMILES strings stand for the structures. The source made the active and inactive calls. No cut-off for these calls is given here.

Turning to `COc1cc2nc(C)nc(N[C@H](C)c3cc(N)cc(C(F)(F)F)c3)c2cc1C1CCN(C(=O)CCCC(=O)N[C@H](C(=O)N2C[C@H](O)C[C@H]2C(=O)N[C@@H](C)c2ccc(-c3scnc3C)cc2)C(C)(C)C)CC1`, the Activity in test [1] is 11.7%; in test [2] it was 9.28%.
Consider `COc1cc2nc(C)nc(N[C@H](C)c3cc(N)cc(C(F)(F)F)c3)c2cc1C1CCN(C(=O)CCOCCC(=O)N[C@H](C(=O)N2C[C@H](O)C[C@H]2C(=O)N[C@@H](C)c2ccc(-c3scnc3C)cc2)C(C)(C)C)CC1`, for which the dissociation constant Kd in test [3] was 0.0336 µM; in test [7] it was 0.0954 µM. The Ratio in test [4] is 2.8. For the same compound, in test [5], the result was inactive. Further, the Activity in test [1] is 22.9%; in test [2], 0%. Further, in test [6], the maximal effect (Emax) is 37.6%.
Regarding `COc1cc2nc(C)nc(N[C@H](C)c3cc(N)cc(C(F)(F)F)c3)c2cc1C1CCN(C(=O)CCCCCCCCC(=O)N[C@H](C(=O)N2C[C@H](O)C[C@H]2C(=O)N[C@@H](C)c2ccc(-c3scnc3C)cc2)C(C)(C)C)CC1`, the Activity in test [1] and in test [2] was 0% throughout.
Consider `COc1cc2nc(C)nc(N[C@H](C)c3cc(N)cc(C(F)(F)F)c3)c2cc1C1CCN(C(=O)[C@H]2CC[C@H](C(=O)N[C@H](C(=O)N3C[C@H](O)C[C@H]3C(=O)N[C@@H](C)c3ccc(-c4scnc4C)cc3)C(C)(C)C)CC2)CC1`, for which the Activity in test [1] turned out to be 8.52%; in test [2] it was 3.24%.
`COc1cc2nc(C)nc(N[C@H](C)c3cc(N)cc(C(F)(F)F)c3)c2cc1C1CCN(C(=O)CCCOCC(=O)N[C@H](C(=O)N2C[C@H](O)C[C@H]2C(=O)N[C@@H](C)c2ccc(-c3scnc3C)cc2)C(C)(C)C)CC1`: the values for the Kd in test [3] and in test [7] were 0.0278 µM and 0.0635 µM, respectively. Moreover, the Ratio in test [4] was 2.3. The outcome in test [5] was inactive. Also, the Activity came to 6.52% in test [1] and 1.36% in test [2]. For the same compound, the maximal response (Emax) in test [6] came to 20.9%.
`COc1cc2nc(C)nc(N[C@H](C)c3cc(N)cc(C(F)(F)F)c3)c2cc1C1CCN(C(=O)C2CN(CCC(=O)N[C@H](C(=O)N3C[C@H](O)C[C@H]3C(=O)N[C@@H](C)c3ccc(-c4scnc4C)cc3)C(C)(C)C)C2)CC1`: the figures for the Activity in test [1] and in test [2] were 11.2% and 9.8%, respectively.
Turning to `COc1cc2nc(C)nc(N[C@H](C)c3cc(N)cc(C(F)(F)F)c3)c2cc1C1CCN(C(=O)COCCCC(=O)N[C@H](C(=O)N2C[C@H](O)C[C@H]2C(=O)N[C@@H](C)c2ccc(-c3scnc3C)cc2)C(C)(C)C)CC1`, the Kd in test [3] was 0.0174 µM; in test [7], 0.155 µM. In test [4], the Ratio came to 8.9. Also, the Activity in test [1] was 90.2%; in test [2], 54.6%. Also, the Emax in test [6] is 97.9%. Moreover, the EC50 in test [8] came to 0.0493 µM.
For `COc1cc2nc(C)nc(N[C@H](C)c3cc(N)cc(C(F)(F)F)c3)c2cc1C1CCN(C(=O)CCCCC(=O)N[C@H](C(=O)N2C[C@H](O)C[C@H]2C(=O)N[C@@H](C)c2ccc(-c3scnc3C)cc2)C(C)(C)C)CC1`, the Kd in test [3] was 0.0267 µM; in test [7] it was 0.0757 µM. In test [4], the Ratio was 2.8. In test [5], the outcome was inactive. In addition, the results for the Activity in test [1] and in test [2] were 37% and 16.4%, respectively. Further, the maximal effect (Emax) in test [6] was found to be 42.9%.
For `COc1cc2nc(C)nc(N[C@H](C)c3cc(N)cc(C(F)(F)F)c3)c2cc1C1CCN(C(=O)CCCCCCC(=O)N[C@H](C(=O)N2C[C@H](O)C[C@H]2C(=O)N[C@@H](C)c2ccc(-c3scnc3C)cc2)C(C)(C)C)CC1`, the Kd was 0.0271 µM in test [3] and 0.0786 µM in test [7]. The Ratio in test [4] was 2.9. For the same compound, the outcome in test [5] was inactive. Also, the Activity in test [1] was found to be 47.3%; in test [2], 25.2%. In addition, the Emax in test [6] is 39.7%.
As to `COc1cc2nc(C)nc(N[C@H](C)c3cc(N)cc(C(F)(F)F)c3)c2cc1C1CCN(C(=O)C2CCN(CCC(=O)N[C@H](C(=O)N3C[C@H](O)C[C@H]3C(=O)N[C@@H](C)c3ccc(-c4scnc4C)cc3)C(C)(C)C)CC2)CC1`, the Activity was 22.6% in test [1] and 21.7% in test [2].
As to `COc1cc2nc(C)nc(N[C@H](C)c3cc(N)cc(C(F)(F)F)c3)c2cc1C1CCN(C(=O)CCCCCCCCCC(=O)N[C@H](C(=O)N2C[C@H](O)C[C@H]2C(=O)N[C@@H](C)c2ccc(-c3scnc3C)cc2)C(C)(C)C)CC1`, the Activity in test [1] was 37.9%; in test [2] it was 9.65%.
Regarding `COc1cc2nc(C)nc(N[C@H](C)c3cc(N)cc(C(F)(F)F)c3)c2cc1C1CCN(CCCCCCCC(=O)N[C@H](C(=O)N2C[C@H](O)C[C@H]2C(=O)N[C@@H](C)c2ccc(-c3scnc3C)cc2)C(C)(C)C)CC1`, the Activity came to 7.32% in test [1] and 9.25% in test [2].
Take `COc1cc2nc(C)nc(N[C@H](C)c3cc(N)cc(C(F)(F)F)c3)c2cc1C1CCN(C(=O)CCCCCCCC(=O)N[C@H](C(=O)N2C[C@H](O)C[C@H]2C(=O)N[C@@H](C)c2ccc(-c3scnc3C)cc2)C(C)(C)C)CC1`: the Activity in test [1] turned out to be 80.2%; in test [2], 31.4%.
Turning to `COc1cc2nc(C)nc(N[C@H](C)c3cc(N)cc(C(F)(F)F)c3)c2cc1C1CCN(CCCCCC(=O)N[C@H](C(=O)N2C[C@H](O)C[C@H]2C(=O)N[C@@H](C)c2ccc(-c3scnc3C)cc2)C(C)(C)C)CC1`, the results for the Activity in test [1] and in test [2] were 2.02% and 3.04%, respectively.
As for `COc1cc2nc(C)nc(N[C@H](C)c3cc(N)cc(C(F)(F)F)c3)c2cc1C1CCN(CCCCCCC(=O)N[C@H](C(=O)N2C[C@H](O)C[C@H]2C(=O)N[C@@H](C)c2ccc(-c3scnc3C)cc2)C(C)(C)C)CC1`, the figures for the Kd in test [3] and in test [7] were 0.0163 µM and 0.0442 µM, respectively. The Ratio in test [4] is 2.7. Also, the outcome in test [5] was inactive. The Activity was determined as 10.7% in test [1] and 9.77% in test [2]. In addition, in test [6], the Emax stood at 9.1%.
`COc1cc2nc(C)nc(N[C@H](C)c3cc(N)cc(C(F)(F)F)c3)c2cc1C1CCN(C(=O)COCCOCC(=O)N[C@H](C(=O)N2C[C@H](O)C[C@H]2C(=O)N[C@@H](C)c2ccc(-c3scnc3C)cc2)C(C)(C)C)CC1`: the results for the Activity in test [1] and in test [2] were 62.5% and 19.6%, respectively.
